Reference: patent publication US9029325B2, “Amylin analogues and pharmaceutical compositions thereof” (Novo Nordisk A/S, priority 2011, dated 2015)
Starred links: 1 amine or outer side, 2 acyl side, 3 side chain; linkers in the order of their positions; H or OH if unused. Positions of bridges follow the written chain, without caps; N, C: chain ends. Residues, ends and D or L forms follow the SMILES beside them. *: point of attachment. C20 diacid = O=C(O)CCCCCCCCCCCCCCCCCCC(=O)*; γGlu = O=C(O)[C@H](CCC(=O)[*:2])N[*:1]

Assay: Assay (III) ThT fibrillation assay for physical stability
Format: physicochemical
Details: for Th T pH 4.0 lag time (h): 37° C., orbital shaking 960 rpm; for ThT pH 4.0 lag time: Table 9
Description: Low physical stability of a polypeptide may lead to amyloid fibril formation, which is observed as well-ordered, thread-like macromolecular structures in the sample eventually resulting in gel formation. This has traditionally been measured by visual inspection of the sample. However, that kind of measurement is very subjective and depending on the observer. Therefore, the application of a small molecule indicator probe is much more advantageous. Thioflavin T (ThT) is such a probe and has a distinct fluorescence signature when binding to fibrils [Naiki et al. (1989) Anal. Biochem. 177, 244-249; LeVine (1999) Methods. Enzymol. […], 274-284].
The time course for fibril formation can be described by a sigmoidal curve with the following expression [Nielsen et al. (2001) Biochemistry 40, 6036-6046]:
[formula] Here, F is the ThT fluorescence at the time t. The constant t0 is the time needed to reach 50% of maximum fluorescence. The two important parameters describing fibril formation are the lag-time calculated by t0−2T and the apparent rate constant kapp=1/τ.
Few of those intermediates nucleate to form a template onto which further intermediates may assembly and the fibrillation proceeds. The lag-time corresponds to the interval in which the critical mass of nucleus is built up and the apparent rate constant is the rate with which the fibril itself is formed.
Samples were prepared freshly before each assay. Each sample composition is described in each example. The pH of the sample was adjusted to the desired value using appropriate amounts of concentrated NaOH and HClO4 or HCl. Thioflavin T was added to the samples from a stock solution in H2O to a final concentration of 1 μM.
Sample aliquots of 200 μl were placed in a 96 well microtiter plate (Packard OptiPlate™-96, white polystyrene). Usually, four or eight replica of each sample (corresponding to one test condition) were placed in one column of wells. The plate was sealed with Scotch Pad (Qiagen).
Incubation at given temperature, shaking and measurement of the ThT fluorescence emission were done in a Fluoroskan Ascent FL fluorescence platereader or Varioskan platereader (Thermo Labsystems). The temperature was adjusted to 37° C. The orbital shaking was adjusted to 960 rpm with an amplitude of 1 mm in all the presented data. Fluorescence measurement was done using excitation through a 444 nm filter and measurement of emission through a 485 nm filter.
Each run was initiated by incubating the plate at the assay temperature for 10 min. The plate was measured every 20 minutes for a desired period of time. Between each measurement, the plate was shaken and heated as described.
The measurement points were saved in Microsoft Excel format for further processing and curve drawing and fitting was performed using GraphPad Prism. The background emission from ThT in the absence of fibrils was negligible. The data points are typically a mean of four or eight samples and shown with standard deviation error bars. Only data obtained in the same experiment (i.e. samples on the same plate) are presented in the same graph ensuring a relative measure of fibrillation […].
The data set may be fitted to Eq. (1). However, since full sigmodial curves in this case are not always achieved during the measurement time, the degree of fibrillation is expressed as ThT fluorescence tabulated as the mean of the samples and shown with the standard deviation at various time points.
The polypeptide concentration in each of the tested formulations were measured both before application in the ThT fibrillation assay (“Initial”) and after completion of the ThT fibrillation (“After ThT assay”). Concentrations were determined by reverse HPLC methods using a pramlintide standard as a reference. Before measurement after completion 150 μl was collected from each of the replica and transferred to an Eppendorf tube. These were centrifuged at 30000 G for 40 mins. […]

Row | SMILES | Th T pH 4.0 lag time (h) | ThT pH 4.0 lag time
1 | CC[C@H](C)[C@H](NC(=O)[C@@H]1CCCN1C(=O)CNC(=O)[C@H](Cc1ccccc1)NC(=O)[C@H](CC(N)=O)NC(=O)[C@H](CCC(N)=O)NC(=O)[C@H](CO)NC(=O)[C@H](CO)NC(=O)[C@H](Cc1c[nH]cn1)NC(=O)[C@H](Cc1c[nH]cn1)NC(=O)[C@H](CC(C)C)NC(=O)[C@H](Cc1ccccc1)NC(=O)[C@H](CCC(=O)O)NC(=O)[C@H](C)NC(=O)[C@H](CC(C)C)NC(=O)[C@H](CCCNC(=N)N)NC(=O)[C@H](CCC(N)=O)NC(=O)[C@@H](NC(=O)[C@H](C)NC(=O)[C@@H]1CSSC[C@H](NC(=O)[C@H](CCCCN)NC(=O)CC[C@H](NC(=O)CCCCCCCCCCCCCCCCCCC(=O)O)C(=O)O)C(=O)N[C@@H](CC(N)=O)C(=O)N[C@@H]([C@@H](C)O)C(=O)N[C@@H](C)C(=O)N[C@@H]([C@@H](C)O)C(=O)N1)[C@@H](C)O)C(=O)N[C@@H](CC(C)C)C(=O)N1CCC[C@H]1C(=O)N1CCC[C@H]1C(=O)N[C@H](C(=O)N[C@@H](CC(N)=O)C(=O)N[C@H](C(=O)NCC(=O)N[C@@H](CO)C(=O)N[C@@H](CCC(N)=O)C(=O)N[C@H](C(=O)N1CCC[C@H]1C(N)=O)[C@@H](C)O)C(C)C)[C@@H](C)O [Example 136, N-alpha-[(S)-4-Carboxy-4-(19-carboxynonadecanoylamino)butyryl]-[Glu14, His17, Gln21, Gln35, Pro37]-pramlintide] ({C20 diacid-γGlu}-KCNTATCATQRLAEFLHHSSQNFGPILPPTNVGSQTP-NH2; disulfide 2-7) | >45 h | >45 hr
2 | CC[C@H](C)[C@H](NC(=O)[C@@H]1CCCN1C(=O)CNC(=O)[C@H](Cc1ccccc1)NC(=O)[C@H](CC(N)=O)NC(=O)[C@H](CC(N)=O)NC(=O)[C@H](CO)NC(=O)[C@H](CO)NC(=O)[C@H](Cc1c[nH]cn1)NC(=O)[C@H](CCCNC(=N)N)NC(=O)[C@H](CC(C)C)NC(=O)[C@H](Cc1ccccc1)NC(=O)[C@H](CCC(=O)O)NC(=O)[C@H](C)NC(=O)[C@H](CC(C)C)NC(=O)[C@H](CCCNC(=N)N)NC(=O)[C@H](CCC(N)=O)NC(=O)[C@@H](NC(=O)[C@H](C)NC(=O)[C@@H]1CSSC[C@H](NC(=O)[C@H](Cc2c[nH]cn2)NC(=O)CC[C@H](NC(=O)CCCCCCCCCCCCCCCCCCC(=O)O)C(=O)O)C(=O)N[C@@H](CC(N)=O)C(=O)N[C@@H]([C@@H](C)O)C(=O)N[C@@H](C)C(=O)N[C@@H]([C@@H](C)O)C(=O)N1)[C@@H](C)O)C(=O)N[C@@H](CC(C)C)C(=O)N1CCC[C@H]1C(=O)N1CCC[C@H]1C(=O)N[C@H](C(=O)N[C@@H](CC(N)=O)C(=O)N[C@H](C(=O)NCC(=O)N[C@@H](CO)C(=O)N[C@@H](CC(N)=O)C(=O)N[C@H](C(=O)N1CCC[C@H]1C(N)=O)[C@@H](C)O)C(C)C)[C@@H](C)O [Example 90, N-alpha-[(S)-4-Carboxy-4-(19-carboxynonadecanoylamino)butyryl]-[His1, Glu14, Arg17, Pro37]-pramlintide] ({C20 diacid-γGlu}-HCNTATCATQRLAEFLRHSSNNFGPILPPTNVGSNTP-NH2; disulfide 2-7 (inferred); C-terminus assumed) | >45 h | >45 hr
3 | CC[C@H](C)[C@H](NC(=O)[C@@H]1CCCN1C(=O)CNC(=O)[C@H](Cc1ccccc1)NC(=O)[C@H](CC(N)=O)NC(=O)[C@H](CC(N)=O)NC(=O)[C@H](CO)NC(=O)[C@H](CO)NC(=O)[C@H](Cc1c[nH]cn1)NC(=O)[C@H](Cc1c[nH]cn1)NC(=O)[C@H](CC(C)C)NC(=O)[C@H](Cc1ccccc1)NC(=O)[C@H](CCC(=O)O)NC(=O)[C@H](C)NC(=O)[C@H](CC(C)C)NC(=O)[C@H](CCCNC(=N)N)NC(=O)[C@H](CCC(N)=O)NC(=O)[C@@H](NC(=O)[C@H](C)NC(=O)[C@@H]1CSSC[C@H](NC(=O)CNC(=O)CC[C@H](NC(=O)CCCCCCCCCCCCCCCCCCC(=O)O)C(=O)O)C(=O)N[C@@H](CC(N)=O)C(=O)N[C@@H]([C@@H](C)O)C(=O)N[C@@H](C)C(=O)N[C@@H]([C@@H](C)O)C(=O)N1)[C@@H](C)O)C(=O)N[C@@H](CC(C)C)C(=O)N1CCC[C@H]1C(=O)N1CCC[C@H]1C(=O)N[C@H](C(=O)N[C@@H](CC(N)=O)C(=O)N[C@H](C(=O)NCC(=O)N[C@@H](CO)C(=O)N[C@@H](CC(N)=O)C(=O)N[C@H](C(=O)N1CCC[C@H]1C(N)=O)[C@@H](C)O)C(C)C)[C@@H](C)O [Example 91, N-alpha-[(S)-4-Carboxy-4-(19-carboxynonadecanoylamino)butyryl]-[Gly1, Glu14, His17, Pro37]-pramlintide] ({C20 diacid-γGlu}-GCNTATCATQRLAEFLHHSSNNFGPILPPTNVGSNTP-NH2; disulfide 2-7) | 29 h | –
4 | CC[C@H](C)[C@H](NC(=O)[C@@H]1CCCN1C(=O)CNC(=O)[C@H](Cc1ccccc1)NC(=O)[C@H](CC(N)=O)NC(=O)[C@H](CC(N)=O)NC(=O)[C@H](CO)NC(=O)[C@H](CO)NC(=O)[C@H](Cc1c[nH]cn1)NC(=O)[C@H](CCCNC(=N)N)NC(=O)[C@H](CC(C)C)NC(=O)[C@H](Cc1ccccc1)NC(=O)[C@H](CCC(=O)O)NC(=O)[C@H](C)NC(=O)[C@H](CC(C)C)NC(=O)[C@H](CCCNC(=N)N)NC(=O)[C@H](CCC(N)=O)NC(=O)[C@@H](NC(=O)[C@H](C)NC(=O)[C@@H]1CSSC[C@H](NC(=O)[C@H](CCCNC(=N)N)NC(=O)[C@H](CCC(=O)O)NC(=O)CC[C@H](NC(=O)CCCCCCCCCCCCCCCCCCC(=O)O)C(=O)O)C(=O)N[C@@H](CC(N)=O)C(=O)N[C@@H]([C@@H](C)O)C(=O)N[C@@H](C)C(=O)N[C@@H]([C@@H](C)O)C(=O)N1)[C@@H](C)O)C(=O)N[C@@H](CC(C)C)C(=O)N1CCC[C@H]1C(=O)N1CCC[C@H]1C(=O)N[C@H](C(=O)N[C@@H](CC(N)=O)C(=O)N[C@H](C(=O)NCC(=O)N[C@@H](CO)C(=O)N[C@@H](CC(N)=O)C(=O)N[C@H](C(=O)N1CCC[C@H]1C(N)=O)[C@@H](C)O)C(C)C)[C@@H](C)O [Example 156, N-alpha-[(S)-4-Carboxy-4-(19-carboxynonadecanoylamino)butyryl]-Glu-[Arg1, Glu14, Arg17, Pro37]-pramlintide] ({C20 diacid-γGlu}-ERCNTATCATQRLAEFLRHSSNNFGPILPPTNVGSNTP-NH2; disulfide 3-8) | >45 h | –
